# In ChEMBL document CHEMBL1649170, “Functional characterization of the sigmaB-dependent yabJ-spoVG operon in Staphylococcus aureus: role in methicillin and glycopeptide resistance” (2009):
# What was measured:
# Assay type in all cases: functional
# Staphylococcus aureus [1] = assay: Antimicrobial activity against methicillin- and tetracycline resistant Staphylococcus aureus COL by broth microdilution method
# Staphylococcus aureus [2] = assay: Antimicrobial activity against erythromycin-, tetracycline resistant and yabJ-spoVG operon deficient Staphylococcus aureus COL by broth microdilution method
# Staphylococcus aureus [3] = assay: Antimicrobial activity against erythromycin-resistant and rsbUVW-sigB operon deficient Staphylococcus aureus COL by broth microdilution method
# Staphylococcus aureus [4] = assay: Antimicrobial activity against methicillin-resistant and tetracycline-sensitive Staphylococcus aureus COL mutant by broth microdilution method
# Staphylococcus aureus [5] = assay: Antimicrobial activity against erythromycin-resistant, tetracycline-sensitive and yabJ-spoVG operon deficient Staphylococcus aureus COL mutant by broth microdilution method
# Staphylococcus aureus [6] = assay: Antimicrobial activity against erythromycin-resistant, tetracycline-sensitive and rsbUVW-sigB operon deficient Staphylococcus aureus COL mutant by broth microdilution method
smiles,measurement,setting,value
Cc1onc(-c2ccccc2)c1C(=O)N[C@@H]1C(=O)N2[C@@H]1SC(C)(C)[C@@H]2C(=O)O [OXACILLIN],MIC,Staphylococcus aureus [1],> 256 µg/mL
same,MIC,Staphylococcus aureus [2],128 µg/mL
same,MIC,Staphylococcus aureus [3],256 µg/mL
same,MIC,Staphylococcus aureus [4],> 256 µg/mL
same,MIC,Staphylococcus aureus [5],> 256 µg/mL
same,MIC,Staphylococcus aureus [6],> 256 µg/mL
